Some results are limits rather than exact numbers.

Test [1] addresses T1, c-KIT D816H kinase (Homo sapiens, UniProt P10721, D816H).
T1 construct: The construct contains residues T544-V976 of cKit; GST (N); TEV cleavage site (internal); purchased deCODE Biostructures
Description: c-KIT D816H Kinase Assay. The note with it: enzymatic assay, ATP 200 µM. Format: biochemical. The procedure, abridged:
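Coupled spectrophotometric assay following NADH oxidation as absorbance decrease at 340 nm, monitored continuously for 6 hours at 30 °C after adding serially diluted compound. Enzyme: mutant cKit construct with N-terminal tag, GST fusion and TEV cleavage site.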

The target of test [2] is T2, c-KIT kinase (Homo sapiens, UniProt P10721). Description: c-KIT kinase Assay. The test is classed as biochemical. Further details: cKIT residues T544-V976; GST (N); TEV cleavage site (internal); purchased deCODE Biostructures. The following applies: enzymatic assay, ATP 200 µM; read-out: KIT (wt) IC50. The procedure, abridged:
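Activity of wild-type human c-KIT kinase was followed as NADH oxidation, read as falling absorbance at 340 nm on a Synergy 2 plate reader (BioTeK) for 2 hours at 30 °C. Rates from the 0 to 1 h window were compared with an uninhibited control to give percent inhibition. IC50 values were fitted in GraphPad Prism across a range of inhibitor concentrations.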
Target sequence in this assay (P10721 544-976): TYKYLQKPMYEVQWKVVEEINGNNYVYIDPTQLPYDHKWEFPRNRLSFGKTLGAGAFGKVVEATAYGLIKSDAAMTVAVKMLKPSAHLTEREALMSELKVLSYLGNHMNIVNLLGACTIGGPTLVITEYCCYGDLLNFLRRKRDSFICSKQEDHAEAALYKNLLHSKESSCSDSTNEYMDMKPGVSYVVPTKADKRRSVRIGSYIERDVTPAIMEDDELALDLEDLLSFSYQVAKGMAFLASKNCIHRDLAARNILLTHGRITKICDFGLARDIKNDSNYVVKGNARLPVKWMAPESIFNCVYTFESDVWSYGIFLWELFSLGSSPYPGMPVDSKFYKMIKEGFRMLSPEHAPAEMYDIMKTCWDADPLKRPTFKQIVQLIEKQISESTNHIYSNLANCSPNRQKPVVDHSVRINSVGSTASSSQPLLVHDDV

The subject of test [3] is Phospho-KIT (Tyr719). Description: GIST48 KIT Western Blot. Format: cell-based. The note with it: GIST48 cells, 4 hours, serum-free medium; read-out: pKIT suppression by western blot analysi GIST48. The procedure, abridged: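 Phospho-KIT (Tyr719) was immunoblotted on PVDF and imaged in fluorescence mode after ECL Plus, with stripping and reprobing for total KIT. IC50 values were derived from the blot signals.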

The target in test [4] is T3, c-KIT T670I kinase (Homo sapiens, UniProt P10721, T670I).
T3 construct: The construct contains residues T544-V976 of cKit; GST (N); TEV cleavage site (internal); purchased deCODE Biostructures
T3 sequence (P10721 544-976 T670I): as the sequence (P10721 544-976) above, with T127I counted along it
Description: c-KIT T670I kinase assay. The note with it: enzymatic assay. Format: biochemical. The procedure, abridged: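 Coupled spectrophotometric assay following NADH oxidation as absorbance decrease at 340 nm, monitored continuously for 5 h at 30 °C after adding serially diluted compound. Enzyme is a cKit construct with N-terminal tag, GST fusion and TEV site, carrying the T670I mutation.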

The subject of test [5] is GIST T1 cells. As to the kind of experiment: GIST T1 Cell Proliferation Assay. Format: cell-based. The following applies: Homo sapiens, GISTT1, 72 h, 68 hours + 4 hours resazurin.
Test [6] addresses T4, c-KIT D816V kinase (Homo sapiens, UniProt P10721, D816V).
T4 construct: residues T544-V976 with N-terminal GST fusion; purchased deCODE Biostructures
As to the kind of experiment: c-KIT D816V kinase Assay. Format: biochemical. The following applies: enzymatic assay, ATP 200 uM. The procedure, abridged:
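Coupled assay in which NADH oxidation was tracked as decreasing absorbance at 340 nm, continuously for 5 hours at 30 °C after adding serially diluted compound. Enzyme: cKit residues T544-V976 with N-terminal tag, GST fusion and TEV cleavage site.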

The test system of test [7] is GIST430 cells. As to the kind of experiment: GIST 430 Cell Proliferation Assay. The test is classed as cell-based. The following applies: Homo sapiens, 120 h, 115 hours + 5 hours resazurin. The method, then:
GIST48, GIST430, and GIST882 cells were obtained from J. Fletcher (Brigham and Women's Hospital, Boston, MA). GIST T1 cells were obtained from B. Rubin (Cleveland Clinic, Cleveland, OH) and Professor Takahiro Taguchi (Kochi Medical School, Nankoku, Kochi, Japan). Briefly, GIST48 and GIST 882 cells were grown in RPMI 1640 medium supplemented with 15% characterized fetal bovine serum (Invitrogen, Carlsbad, CA), 1 unit/mL penicillin G, 1 µg/ml streptomycin, and 0.29 mg/mL L-glutamine at 37 °C, 5% CO2, and 95% humidity. GIST430 cells were grown in Ham's F10 medium supplemented with 15% characterized fetal bovine serum (Invitrogen, Carlsbad, CA), 30 mg/L bovine pituitary extract (BD Biosciences, San Jose, CA), 0.5% Mito+ serum extender (BD Biosciences, San Jose, CA), 1 unit/mL penicillin G, 1 µg/ml streptomycin, and 0.29 mg/mL L-glutamine at 37 °C, 5%CO2, 95% humidity. GIST T1 cells were grown in DMEM medium supplemented with 10% characterized fetal bovine serum (Invitrogen, Carlsbad, CA), 1 unit/mL penicillin G, 1 µg/ml streptomycin, and 0.29 mg/mL L-glutamine at 37 °C, 5% CO2, and 95% humidity.
A serial dilution of test compound was dispensed into a 384-well black clear bottom plate (Corning, Corning, NY). Two thousand five-hundred cells were added per well in 50 µL complete growth medium. Plates were incubated for 115 hours at 37°C, 5% CO2, 95% humidity. At the end of the incubation period 10 µL of a 440 µM solution of resazurin (Sigma, St. Louis, MO) in PBS was added to each well and incubated for an additional 5 hours at 37°C, 5% CO2, 95% humidity. Plates were read on a Synergy2 reader (Biotek, Winooski, VT) using an excitation of 540 nm and an emission of 600 nm.

The target of test [8] is T5, c-KIT VVDV kinase (Homo sapiens, UniProt P10721, D816V/DEL559-560).
T5 construct: This construct contains residues T544-V976 of cKit; GST (N); TEV cleavage site (internal); purchased deCODE Biostructures
T5 sequence (P10721 with tags, fused parts or gaps DEL559-560/D816V): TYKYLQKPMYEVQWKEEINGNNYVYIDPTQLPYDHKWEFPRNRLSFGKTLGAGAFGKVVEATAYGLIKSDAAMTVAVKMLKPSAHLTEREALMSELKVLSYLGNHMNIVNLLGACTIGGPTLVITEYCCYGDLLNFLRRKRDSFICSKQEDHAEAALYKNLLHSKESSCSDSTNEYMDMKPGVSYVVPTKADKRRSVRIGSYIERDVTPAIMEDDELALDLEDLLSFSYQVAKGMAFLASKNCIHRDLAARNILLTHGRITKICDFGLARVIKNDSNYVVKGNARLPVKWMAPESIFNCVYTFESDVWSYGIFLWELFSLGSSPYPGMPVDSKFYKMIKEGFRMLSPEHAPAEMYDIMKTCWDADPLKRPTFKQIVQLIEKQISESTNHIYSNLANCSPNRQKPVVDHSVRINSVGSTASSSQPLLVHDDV
Description: cKIT-VVDV kinase Assay. The test is classed as biochemical. The following applies: enzymatic assay; V559+V560 deletions and D816V mutation. The method, then:
In this assay, the oxidation of NADH (measured by decrease in absorbance at 340 nm) was continuously monitored spectrophotometrically. […] The inhibition reaction was started by mixing serial diluted test compound with the above reaction mixture. The absorption at 340 nm was monitored continuously for 5 hours at 30 °C on Synergy 2 plate reader (BioTech). […] The protein construct was prepared by deCODE Biostructures using procedures known in the art. […] This construct is identical to Seq ID no.

Test [9] concerns the target T6, c-KIT V654A kinase (Homo sapiens, UniProt P10721, V654A).
T6 construct: residues T544-V976 with N-terminal GST fusion; purchased deCODE Biostructures
As to the kind of experiment: c-KIT V654A Kinase Assay. The test is classed as biochemical. The note with it: enzymatic assay, ATP 200 µM. In a few lines: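 Construct: cKIT residues T544–V976 with N-terminal tag, GST fusion and TEV site. Reaction started by adding serially diluted compound to the enzyme mixture; NADH oxidation, coupled to kinase turnover, followed as the decrease in A340 for 6 h at 30 °C.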

For test [10], the target named is T2, c-KIT kinase. As to the kind of experiment: Kinase inhibitory profile of marketed inhibitors, c-KIT kinase. The test is classed as biochemical.
Target sequence in this assay (P10721 26-976): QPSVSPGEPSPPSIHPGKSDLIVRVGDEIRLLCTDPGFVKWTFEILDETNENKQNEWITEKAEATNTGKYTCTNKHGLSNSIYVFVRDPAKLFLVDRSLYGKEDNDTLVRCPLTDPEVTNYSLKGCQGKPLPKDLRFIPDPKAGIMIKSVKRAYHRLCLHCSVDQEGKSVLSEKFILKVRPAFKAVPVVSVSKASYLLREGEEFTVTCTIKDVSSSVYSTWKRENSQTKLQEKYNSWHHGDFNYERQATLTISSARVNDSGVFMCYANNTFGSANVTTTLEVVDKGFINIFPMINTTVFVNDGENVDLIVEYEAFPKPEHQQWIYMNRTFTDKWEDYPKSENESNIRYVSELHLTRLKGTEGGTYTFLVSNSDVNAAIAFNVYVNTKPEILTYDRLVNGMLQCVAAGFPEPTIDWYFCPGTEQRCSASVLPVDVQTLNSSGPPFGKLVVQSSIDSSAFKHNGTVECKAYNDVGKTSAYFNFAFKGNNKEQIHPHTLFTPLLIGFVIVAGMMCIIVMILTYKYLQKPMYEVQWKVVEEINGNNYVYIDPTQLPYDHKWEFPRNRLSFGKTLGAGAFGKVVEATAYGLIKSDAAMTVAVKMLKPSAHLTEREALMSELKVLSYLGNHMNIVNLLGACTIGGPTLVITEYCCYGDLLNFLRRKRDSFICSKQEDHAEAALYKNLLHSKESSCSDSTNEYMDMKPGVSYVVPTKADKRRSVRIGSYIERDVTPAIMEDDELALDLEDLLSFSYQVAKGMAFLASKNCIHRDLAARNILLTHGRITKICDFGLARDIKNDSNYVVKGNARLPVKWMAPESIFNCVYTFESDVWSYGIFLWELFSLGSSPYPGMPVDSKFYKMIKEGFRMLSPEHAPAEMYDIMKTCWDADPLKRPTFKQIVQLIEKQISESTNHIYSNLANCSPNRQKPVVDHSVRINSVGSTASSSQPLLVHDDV

T1 sequence (P10721 544-976 D816H): as the sequence (P10721 544-976) above, with D273H counted along it
T4 sequence (P10721 544-976 D816V): as the sequence (P10721 544-976) above, with D273V counted along it
T6 sequence (P10721 544-976 V654A): as the sequence (P10721 544-976) above, with V111A counted along it

Consider `CCn1c(=O)c(-c2cc(NC(=O)Nc3ccccc3F)c(F)cc2C)cc2cnc(NC)cc21` [Example 38, 1-(5-(1-ethyl-7-(methylamino)-2-oxo-1,2-dihydro-1,6-naphthyridin-3-yl)-2-fluoro-4-methylphenyl)-3-(2-fluorophenyl)urea], for which the IC50 in [1] was 10 to 100 nM; in test [2] it was less than 10 nM; in test [3], greater than 1000 nM; in test [4], 100 to 1000 nM; in test [5] it was less than 10 nM; in [6] it was 10 to 100 nM. The IC50 in [7] lay in the range of 10 to 100 nM.

With `CNc1cc2c(cn1)cc(-c1cc(NC(=O)Nc3cccc(F)c3)c(F)cc1F)c(=O)n2C(C)C` [Example 40, 1-(2,4-difluoro-5-(1-isopropyl-7-(methylamino)-2-oxo-1,2-dihydro-1,6-naphthyridin-3-yl)phenyl)-3-(3-fluorophenyl)urea], the IC50 was 10 to 100 nM in test [1]; less than 10 nM in [2]; 100 to 1000 nM in [4]; 100 to 1000 nM in [8]; less than 10 nM in test [5]; 10 to 100 nM in [9]. Moreover, the figures for the IC50 in test [6] and in [7] were 10 to 100 nM and 100 to 1000 nM, respectively.

Consider `CCCS(=O)(=O)Nc1ccc(F)c(C(=O)c2c[nH]c3ncc(-c4ccc(Cl)cc4)cc23)c1F` [Vemurafenib®, vemurafenib], for which the IC50 in [10] was determined as 1600 nM.
